Source: the supplement of paper PMC8960247
Counter-ions that a name gives are not always drawn. ± gives the standard error.

Columns and labels:
[1] = system: 621-103 (TSC2-rescued); experiment: relative viability vs DMSO; higher = less cytotoxic; conditions: serum: 10% FBS, 72 h
[2] = system: 621-102 (TSC2-deficient); experiment: as above; conditions: serum: 10% FBS, 72 h
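Also: immortalized renal angiomyolipoma cells stably carrying empty vector or TSC2, dosed in 384-well plates in DMEM, viability normalized to vehicle-treated wells within each plate.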

| Structure (SMILES) | relative viability ([1]; 0.0001 µM) [%] | relative viability ([1]; 0.001 µM) [%] | relative viability ([1]; 0.01 µM) [%] | relative viability ([1]; 0.1 µM) [%] | relative viability ([1]; 1 µM) [%] | relative viability ([1]; 10 µM) [%] | relative viability ([2]; 0.0001 µM) [%] | relative viability ([2]; 0.001 µM) [%] | relative viability ([2]; 0.01 µM) [%] | relative viability ([2]; 0.1 µM) [%] | relative viability ([2]; 1 µM) [%] | relative viability ([2]; 10 µM) [%] |
| --- | --- | --- | --- | --- | --- | --- | --- | --- | --- | --- | --- | --- |
| CCN1CCCC1CNC(=O)c1cc(S(=O)(=O)CC)c(N)cc1OC (stereo not drawn) [Amisulpride] | 104 ± 1.8 | 105 ± 2.5 | 110.7 ± 0.99 | 103.5 ± 0.35 | 113 ± 4.8 | 114 ± 3.6 | 111 ± 3.8 | 100 ± 1.3 | 104.3 ± 0.84 | 105 ± 3 | 107.5 ± 0.4 | 110 ± 1.6 |
| CCOC(=O)C1=C(COCCN)NC(C)=C(C(=O)OC)C1c1ccccc1Cl (stereo not drawn) [Amlodipine besylate] | 96.2 ± 2.2 | 91.1 ± 4.7 | 99.4 ± 2.6 | 102 ± 9 | 94.5 ± 5.2 | 57.2 ± 5 | 65.2 ± 8.7 | 72.3 ± 1.8 | 76.1 ± 6.9 | 71.3 ± 8.8 | 65.1 ± 9.1 | 53.6 ± 2.7 |
| CC(C)(C#N)c1cc(Cn2cncn2)cc(C(C)(C)C#N)c1 [Anastrozole (Arimidex)] | 101 ± 1.4 | 104 ± 3.2 | 101 ± 1.7 | 103.6 ± 0.71 | 99.407 ± 0.097 | 99.4 ± 2.6 | 125 ± 1.8 | 109 ± 6.2 | 108 ± 3.5 | 106 ± 2.2 | 120 ± 1.5 | 119 ± 4.3 |
| N#CC1(c2ccc(NC(=O)c3cccnc3NCc3ccncc3)cc2)CCCC1 [Apatinib] | 111.1 ± 1.1 | 103 ± 3.9 | 110 ± 2.4 | 107 ± 2.4 | 107 ± 7.4 | 103.7 ± 0.61 | 101 ± 3.1 | 109.9 ± 0.77 | 111.8 ± 0.42 | 111 ± 4.4 | 102 ± 4.9 | 101.34 ± 0.059 |
| O=c1cc(-c2ccc(O)cc2)oc2cc(O)cc(O)c12 [Apigenin] | 112 ± 4.7 | 128 ± 1.4 | 108.9 ± 0.2 | 115 ± 4.3 | 111 ± 4.9 | 125 ± 4 | 90.7 ± 0.81 | 105 ± 2.6 | 110 ± 2.2 | 113 ± 5.3 | 111 ± 2.9 | 112 ± 5.7 |
| COc1ccc(-n2nc(C(N)=O)c3c2C(=O)N(c2ccc(N4CCCCC4=O)cc2)CC3)cc1 [Apixaban] | 117 ± 4.5 | 116.3 ± 0.34 | 115 ± 1.5 | 110 ± 3.2 | 104 ± 3.3 | 105 ± 4.6 | 107.9 ± 0.95 | 121 ± 0.2 | 112 ± 4.2 | 108 ± 3.1 | 91.79 ± 0.34 | 111 ± 2.4 |
| COc1cc(OC)c(OC)cc1C=O [Asaraldehyde] | 101 ± 2 | 103 ± 2 | 94.8 ± 1.3 | 99.98 ± 0.77 | 102.5 ± 0.13 | 96.06 ± 0.3 | 112 ± 3.5 | 116.4 ± 0.26 | 109.6 ± 0.37 | 96.2 ± 1.4 | 113.4 ± 0.62 | 92.3 ± 1.9 |
| CN1CC2c3ccccc3Oc3ccc(Cl)cc3C2C1 (stereo not drawn) [Asenapine maleate] | 110 ± 0.8 | 113 ± 3.3 | 110.6 ± 0.71 | 112 ± 5 | 103 ± 3.5 | 88.47 ± 0.57 | 110 ± 1.5 | 105.4 ± 0.74 | 106.4 ± 0.12 | 105 ± 5.3 | 110 ± 3.4 | 89.34 ± 0.58 |
| CN1[C@@H]2CC[C@H]1C[C@@H](OC(=O)C(CO)c1ccccc1)C2 (stereo partly drawn) [Atropine sulfate monohydrate] | 80.5 ± 7 | 92.1 ± 8.5 | 105 ± 6.5 | 97.9 ± 6.4 | 89.9 ± 3.7 | 80.3 ± 5 | 64.6 ± 5.9 | 79 ± 1.7 | 83.3 ± 5.4 | 79.6 ± 6.8 | 70.8 ± 5.3 | 63.6 ± 6.5 |
